Test systems include HOP-92 NSCLC; NCI-H460 lung; COLO 205 colon; HCC-2998 colon; HCT-15 colon; BT-549 breast; MOLT-4 leukemia; MALME-3M melanoma.
Assay in all cases: NCI tumour cell line growth inhibition, 48 h

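Compound exposure: 48 hours, 5 concentrations, 96-well plates. GI50 is the concentration that inhibits growth by half. At the TGI there is no net growth.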 A value given as a limit tells only on which side of the number the result lay.

Consider `COc1cc2c(c(OC)c1OC)-c1c(cc3c(c1OC)OCO3)CC(C)C(C)(O)C2OC(=O)c1ccccc1` (stereo not given), for which the TGI in the assay on HOP-92 NSCLC was 73.7 µM; with NCI-H460 lung, more than 100 µM; in the assay with COLO 205 colon it was 53.5 µM; with HCC-2998 colon, more than 100 µM; in the assay with HCT-15 colon, more than 100 µM; with BT-549 breast, more than 100 µM. For the same compound, the TGI in the assay with MOLT-4 leukemia was 29.3 µM; with MALME-3M melanoma, more than 100 µM.
Turning to `CCOC1OC(=O)[C@H]2[C@@H]1[C@@H]1CC[C@H]2O1` (stereo not given in full), the GI50 is more than 100 µM with HOP-92 NSCLC; more than 100 µM in the assay on NCI-H460 lung; 7.96 µM in the assay on COLO 205 colon; 13.4 µM with HCC-2998 colon; more than 100 µM in the assay with HCT-15 colon; more than 100 µM in the assay with BT-549 breast. Besides, in the assay with MOLT-4 leukemia, the GI50 is more than 100 µM. The TGI with HOP-92 NSCLC was more than 100 µM; in the assay with NCI-H460 lung, more than 100 µM; in the assay with COLO 205 colon, more than 19.8 µM; in the assay on HCC-2998 colon it was 29.5 µM; in the assay on HCT-15 colon it was more than 100 µM; in the assay on BT-549 breast, more than 100 µM. The same compound came in with a TGI in the assay on MOLT-4 leukemia of more than 100 µM.
For `N/C(=N\c1nc2ccccc2s1)NC(=NC1CCCCC1)NC1CCCCC1`, the GI50 in the assay on NCI-H460 lung is 1.77 µM; in the assay on COLO 205 colon it was 1.7 µM; in the assay with HCC-2998 colon it was 1.58 µM; with HCT-15 colon, 1.47 µM; in the assay with BT-549 breast, 1.65 µM; in the assay with MOLT-4 leukemia, 1.98 µM. Also, in the assay with MALME-3M melanoma, the GI50 is 1.52 µM. For the same compound, the TGI with NCI-H460 lung worked out at 3.43 µM; in the assay with COLO 205 colon, 3.6 µM; in the assay with HCC-2998 colon it was 2.98 µM; in the assay on HCT-15 colon, 2.93 µM; with BT-549 breast, 3.22 µM; in the assay with MOLT-4 leukemia it was 5.45 µM. This compound had a TGI in the assay on MALME-3M melanoma of 3.13 µM.
In the case of `COc1ccc2c(c1)C(=O)c1c-2n(CCCN)c(=O)c2cc([N+](=O)[O-])ccc12`, the GI50 in the assay on NCI-H460 lung was less than 0.01 µM; with HCT-15 colon, 1.77 µM; in the assay with BT-549 breast it was less than 0.01 µM; with MOLT-4 leukemia, less than 0.01 µM; in the assay on MALME-3M melanoma, 2.25 µM. Also, the TGI in the assay with NCI-H460 lung was 0.0146 µM; in the assay with HCT-15 colon, more than 100 µM; in the assay with MOLT-4 leukemia it was less than 0.01 µM; in the assay with MALME-3M melanoma, 7.64 µM.
Consider `COc1ccc2c(c1)C(=O)c1c-2c(N2CCNCC2)nc2ccccc12`, for which the GI50 in the assay on NCI-H460 lung is 0.614 µM; with COLO 205 colon, 1.66 µM; with HCT-15 colon, 3.44 µM; in the assay with BT-549 breast it was 3.4 µM; in the assay on MOLT-4 leukemia, 0.688 µM; with MALME-3M melanoma it was 1.79 µM. In addition, the TGI in the assay with NCI-H460 lung was found to be 1.98 µM; with COLO 205 colon, 3.28 µM; in the assay on HCT-15 colon it was 11.8 µM; in the assay on BT-549 breast, 11.4 µM; in the assay on MOLT-4 leukemia, 3.03 µM; in the assay on MALME-3M melanoma, 4.34 µM.
Turning to `Cc1ccc(Sc2oc(-c3ccc(C)cc3)nc2[P+](c2ccccc2)(c2ccccc2)c2ccccc2)cc1`, the GI50 is 0.178 µM in the assay with HOP-92 NSCLC; 0.312 µM in the assay with NCI-H460 lung; 0.399 µM with HCC-2998 colon; 0.31 µM in the assay with HCT-15 colon; 0.365 µM in the assay with BT-549 breast; 0.319 µM in the assay with MOLT-4 leukemia. The GI50 with MALME-3M melanoma is 0.241 µM. The TGI came to 0.722 µM in the assay with HOP-92 NSCLC; 1.12 µM in the assay on NCI-H460 lung; 1.57 µM in the assay on HCC-2998 colon; 1.26 µM in the assay on HCT-15 colon; 1.37 µM with BT-549 breast; 1.11 µM in the assay on MOLT-4 leukemia. In addition, the TGI with MALME-3M melanoma came out at 0.813 µM.
On to `Nc1cc2cccc[n+]2c2cccc(Cl)c12`, for which the GI50 in the assay on HOP-92 NSCLC is 51 µM; with NCI-H460 lung, 20.2 µM; in the assay with COLO 205 colon, 15.5 µM; in the assay with HCC-2998 colon it was 11.4 µM; in the assay on BT-549 breast, 16.1 µM; with MOLT-4 leukemia, 7.46 µM. Besides, the GI50 in the assay on MALME-3M melanoma is 3.21 µM. The TGI in the assay on NCI-H460 lung was found to be 58.7 µM; in the assay with HCC-2998 colon it was 32.4 µM; with BT-549 breast, 48.8 µM; with MALME-3M melanoma, 13.5 µM.
Regarding `CCN(CC)CCC(CNc1c(C)cnc2cc(Cl)ccc12)c1ccc(Cl)cc1` (stereo not given), the GI50 with NCI-H460 lung was 10 µM; with BT-549 breast it was 11.2 µM; with MOLT-4 leukemia, 5.27 µM. Moreover, the TGI in the assay with NCI-H460 lung stood at 25.2 µM; in the assay with BT-549 breast, 24.9 µM; in the assay on MOLT-4 leukemia, 23.8 µM.
For `O=c1c(-c2ccccc2)coc2cc(OC/C(=N/O)c3ccc(F)cc3)ccc12`, the GI50 in the assay with HOP-92 NSCLC was 18.8 µM; in the assay on NCI-H460 lung, 17.4 µM; in the assay with COLO 205 colon it was 18.9 µM; in the assay on HCT-15 colon, 21.3 µM; with BT-549 breast, 20.3 µM; with MOLT-4 leukemia, 24 µM. The GI50 with MALME-3M melanoma is 10.1 µM. The TGI in the assay with HOP-92 NSCLC is 44.9 µM; in the assay with NCI-H460 lung it was 38.2 µM; with COLO 205 colon, 50.7 µM; in the assay on HCT-15 colon, 50.3 µM; in the assay on BT-549 breast it was 41.8 µM; in the assay with MOLT-4 leukemia, more than 100 µM. The compound also returned a TGI in the assay with MALME-3M melanoma of 31.9 µM.
As to `CC/C=C\C/C=C/C=C1/C(=O)C=C[C@@H]1C/C=C\CCCC(=O)OC`, the GI50 in the assay with HOP-92 NSCLC was 3.07 µM; with NCI-H460 lung it was 3.07 µM; with COLO 205 colon it was 2.14 µM; in the assay on HCC-2998 colon, 2.03 µM; with HCT-15 colon it was 2.2 µM; in the assay on MOLT-4 leukemia, 1.36 µM. In addition, the GI50 in the assay with MALME-3M melanoma is 2.5 µM. Also, the TGI in the assay on HOP-92 NSCLC stood at 8.49 µM; with NCI-H460 lung, 8.85 µM; in the assay on COLO 205 colon, 5.23 µM; with HCC-2998 colon, 3.62 µM; in the assay on HCT-15 colon, 7.89 µM; in the assay on MOLT-4 leukemia it was 11.2 µM. In addition, the TGI in the assay on MALME-3M melanoma came out at 6.64 µM.
As to `O=C(NN1C(=O)CSC1c1ccc(F)cc1)C(O)c1ccccc1` (stereo not given), the GI50 was more than 100 µM in the assay on HOP-92 NSCLC; 81.8 µM in the assay with NCI-H460 lung; more than 100 µM in the assay on COLO 205 colon; more than 100 µM with HCC-2998 colon; more than 100 µM with HCT-15 colon; more than 100 µM with BT-549 breast. Moreover, in the assay with MOLT-4 leukemia, the GI50 is more than 100 µM. Also, the TGI in the assay with HOP-92 NSCLC, in the assay on NCI-H460 lung, in the assay with COLO 205 colon, in the assay with HCC-2998 colon, in the assay with HCT-15 colon and in the assay on BT-549 breast was more than 100 µM in each case. This compound also returned a TGI in the assay on MOLT-4 leukemia of more than 100 µM.

For the origin of these results see PubChem BioAssay (NCI).
